Experimental findings from US20140051650A1, “VAGINAL COMPOSITIONS BASED ON ALKYL POLYGLUCOSIDES” (EFFIK S.A., priority 2011, published 2014) are described below.

What all share (type): cell-based
One experiment has as its system vaginal lactobacilli. The experiment can be described thus: Activity on vaginal lactobacilli compared with the pathogen strains. The conditions noted are these: lactobacilli versus G. vaginalis. Here is the method:
By comparison, the lactobacillus strains dominating in the physiological colonization of the vaginal mucosa typical in healthy women were also tested. Thus, such explorative activity was carried out on such strains with the aim of evaluating a selectivity of the compounds of the invention with respect to the pathogenic microorganisms with respect to the lactobacillus bacterial flora. Immediately after determining the value of the MIC for each substance, a volume equivalent to 50 μl was taken from each well and streaked on the surface of plates containing the solid medium. The plates were subsequently incubated at the conditions indicated for each microbial strain. After incubation at 37° C. for 24 hours, the number of colonies grown on the medium surface was counted thus determining the number of bacteria that survived after 24 hours of contact with the substance at the concentration present in the well. The MBC value defined as the lowest concentration of each substance capable of reducing the bacterial load by 99.9% in the previously defined assay conditions was determined through comparison between the number of bacteria that survived in each well and that of the bacterial inoculum deposited initially.

For experiment [1], the system named is Gardnerella vaginalis ATCC 14018. The experiment can be described thus: MBC against Gardnerella vaginalis. As to conditions: substance alone. How it is done:
(§1) The Gardnerella vaginalis ATCC 14018 strain, the Neisseria gonorrhoeae ATCC 43069 strain and the Candida albicans ATCC 10231 strain were also used for the experiment. [table] The other assayed microbial strains were cultured in the liquid media and in the incubation conditions specified in table A, following the operating procedure described above. Immediately after determining the value of the MIC for each substance, a volume equivalent to 50 μl was taken from each well and streaked on the surface of plates containing the solid medium. The plates were subsequently incubated at the conditions indicated for each microbial strain. After incubation at 37° C. for 24 hours, the number of colonies grown on the medium surface was counted thus determining the number of bacteria that survived after 24 hours of contact with the substance at the concentration present in the well. The MBC value defined as the lowest concentration of each substance capable of reducing the bacterial load by 99.9% in the previously defined assay conditions was determined through comparison between the number of bacteria that survived in each well and that of the bacterial inoculum deposited initially.

Experiment [2] relates to Candida albicans ATCC 10231. The experiment can be described thus: MBC against Candida albicans. As to conditions: substance alone. How it is done: as §1
Experiment [3] has as its system Gardnerella vaginalis ATCC 14018. The experiment can be described thus: MIC against Gardnerella vaginalis. The conditions noted are these: substance alone. How it is done: (§2) The Gardnerella vaginalis ATCC 14018 strain, the Neisseria gonorrhoeae ATCC 43069 strain and the Candida albicans ATCC 10231 strain were also used for the experiment.
(§3) The other assayed microbial strains were cultured in the liquid media and in the incubation conditions specified in table A, following the operating procedure described above.
(§4) The assay was carried out in 96-well microtitre plates. 50 μl of substance solution at the “mother” concentration alongside 50 μl of liquid medium at double concentration were deposited in the first well of each of the 8 rows while 50 μl of liquid medium at normal concentration were deposited in the remaining 11 wells. Starting from the first well of each row, 50 μl volumes were transferred from each well to the subsequent one 10 times, thus obtaining a series of 11 dilutions after doubling. The 12th well of each row was kept substance-free as a function of positive control of the bacterial growth.
Subsequently, 50 μl of diluted bacterial inoculum as specified previously were deposited in all wells of the plate, except for the 11th of each row. Only the liquid medium at single concentration but bacteria-free, was deposited in the 11th well, with the aim of providing negative control for each row. The described scheme was used for the assay with each of the assayed microbial strains. […]

The subject of experiment [4] is Candida albicans ATCC 10231. Description: MIC against Candida albicans. The conditions noted are these: substance alone. How it is done: as §2, §3, §4
Subsequently, 50 μl of diluted bacterial inoculum as specified previously were deposited in all wells of the plate, except for the 11th of each row. Only the liquid medium at single concentration but bacteria-free, was deposited in the 11th well, with the aim of providing negative control for each row. The described scheme was used for the assay with each of the assayed microbial strains.
After incubation at the conditions indicated regarding each micro-organism, the microtitre plates were examined to verify, in each well, the presence or absence of bacterial growth. The minimum inhibitory concentration is defined as the lowest concentration of the substance still capable of inhibiting bacterial growth i.e. preventing the liquid from becoming turbid within the well.

For the substance “lauryl glucoside/C12-C16 alkyl polyglucoside [Substance A2]”, the “MBC values in vaginal lactobacilli, times higher than those observed in G. vaginalis” value against vaginal lactobacilli is “about 15 times”. Moreover, the MBC in experiment [1] was determined as 0.0048%; in experiment [2], 0.154%. The MIC in experiment [3] is recorded as 0.0048%; in experiment [4], 0.077%.
